In ChEMBL document CHEMBL4270514, “Design, synthesis and biological evaluation of novel xanthine oxidase inhibitors bearing a 2-arylbenzo[b]furan scaffold” (Eur J Med Chem, 2018):
The source made the active and inactive calls. The calls are words filed in the database; no cut-off is given here.

Assays:
[1] = molecular target: T1, Xanthine dehydrogenase/oxidase (Bos taurus, UniProt P80457); assay: Inhibition of bovine xanthine oxidase using xanthine as substrate preincubated for 3 mins followed by substrate addition and measured for every 15 secs for 7 mins by spectrophotometric analysis
T1 sequence (P80457 whole entry): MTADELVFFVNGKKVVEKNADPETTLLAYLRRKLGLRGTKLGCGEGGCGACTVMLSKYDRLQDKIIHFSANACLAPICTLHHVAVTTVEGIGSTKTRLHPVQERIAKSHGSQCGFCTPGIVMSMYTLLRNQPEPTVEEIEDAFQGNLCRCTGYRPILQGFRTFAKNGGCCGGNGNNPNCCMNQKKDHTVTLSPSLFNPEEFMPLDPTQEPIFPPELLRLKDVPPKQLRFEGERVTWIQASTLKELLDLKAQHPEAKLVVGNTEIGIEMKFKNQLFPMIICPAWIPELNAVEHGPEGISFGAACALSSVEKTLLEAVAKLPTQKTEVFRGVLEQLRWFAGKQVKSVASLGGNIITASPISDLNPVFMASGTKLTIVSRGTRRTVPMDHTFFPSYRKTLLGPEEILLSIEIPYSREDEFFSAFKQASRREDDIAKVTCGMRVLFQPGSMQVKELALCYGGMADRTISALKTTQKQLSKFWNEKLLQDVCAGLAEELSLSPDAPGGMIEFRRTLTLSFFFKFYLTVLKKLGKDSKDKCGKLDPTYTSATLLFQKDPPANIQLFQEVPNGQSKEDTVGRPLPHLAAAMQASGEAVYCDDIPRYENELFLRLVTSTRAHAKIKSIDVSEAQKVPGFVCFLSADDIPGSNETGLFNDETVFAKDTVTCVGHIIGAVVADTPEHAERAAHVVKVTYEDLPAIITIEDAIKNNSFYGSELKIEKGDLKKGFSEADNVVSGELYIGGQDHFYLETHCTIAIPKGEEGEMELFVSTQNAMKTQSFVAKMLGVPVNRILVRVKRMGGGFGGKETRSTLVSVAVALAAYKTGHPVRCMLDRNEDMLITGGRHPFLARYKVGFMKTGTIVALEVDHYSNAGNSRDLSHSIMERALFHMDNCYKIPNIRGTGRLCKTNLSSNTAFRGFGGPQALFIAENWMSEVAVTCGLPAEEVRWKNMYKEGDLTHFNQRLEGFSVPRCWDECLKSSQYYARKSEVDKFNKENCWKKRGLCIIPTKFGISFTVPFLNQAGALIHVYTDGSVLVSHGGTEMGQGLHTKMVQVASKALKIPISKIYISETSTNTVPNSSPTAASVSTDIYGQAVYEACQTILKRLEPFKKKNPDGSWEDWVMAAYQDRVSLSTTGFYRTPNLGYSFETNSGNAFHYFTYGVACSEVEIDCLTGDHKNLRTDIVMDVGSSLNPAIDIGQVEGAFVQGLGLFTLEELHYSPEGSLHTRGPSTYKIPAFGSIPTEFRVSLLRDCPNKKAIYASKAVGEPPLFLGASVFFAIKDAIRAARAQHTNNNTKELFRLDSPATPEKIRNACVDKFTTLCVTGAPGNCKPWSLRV

RAW264.7 [2] = assay: Inhibition of LPS-induced ROS generation in mouse RAW264.7 cells at 10 uM after 24 hrs by H2DCFH staining-based fluorescence assay; format: functional, cell-based
[3] = Antioxidant activity assessed as DPPH radical scavenging activity after 30 mins by spectrophotometric analysis; format: functional
[4] = Cytotoxicity against mouse RAW264.7 cells assessed as effect on cell viability at 1 to 10 uM after 24 hrs by MTT assay relative to control; format: cell-based; conditions: read-out: Activity
RAW264.7 [5] = assay: Inhibition of LPS-induced ROS generation in mouse RAW264.7 cells after 24 hrs by H2DCFH staining-based fluorescence assay; format: functional, cell-based
Mus musculus [6] = assay: Hypouricemic effect in iv dosed ICR mouse model of potassium oxonate-induced acute hyperuricemia assessed as reduction in serum uric acids level measured after 1 hr post dose; format: functional, organism-based
[7] = molecular target: T1, Xanthine dehydrogenase/oxidase; assay: Uncompetitive inhibition of bovine xanthine oxidase using xanthine as substrate preincubated for 3 mins followed by substrate addition by Lineweaver-Burk plot analysis
[8] = molecular target: T1, Xanthine dehydrogenase/oxidase; assay: Competitive inhibition of bovine xanthine oxidase using xanthine as substrate preincubated for 3 mins followed by substrate addition by Lineweaver-Burk plot analysis
RAW264.7 [9] = assay: Inhibition of LPS-induced ROS generation in mouse RAW264.7 cells at 1 to 10 uM after 24 hrs by H2DCFH staining-based fluorescence assay; format: functional, cell-based
Mus musculus [10] = assay: Hypouricemic effect in ICR mouse model of potassium oxonate-induced acute hyperuricemia assessed as reduction in serum uric acid levels at 10 mg/kg, iv measured at 1 hr post dose; format: functional, organism-based

| Compound | IC50 [1] [µM] | IC50 [3] [µM] | Ki [7] [µM] | Ki [8] [µM] | inhibition (RAW264.7 [2]) | viability at 24 h, up to 10 µM [4] [%] | inhibition (RAW264.7 [5]) | Activity (Mus musculus [6]) | inhibition (RAW264.7 [9]) | viability at 24 h, 10 µM [4] [%] | Activity (Mus musculus [10]) |
| --- | --- | --- | --- | --- | --- | --- | --- | --- | --- | --- | --- |
| CNC(=O)/C=C/c1ccc(O)c2oc(-c3ccc(O)c(O)c3)cc12 | 4.45 | 6.62 to 21.1 | 13.1 | 3.52 |  | > 85 | Dose-dependent effect | Dose-dependent effect |  |  |  |
| O=C(/C=C/c1ccc(O)c2oc(-c3ccc(O)c(O)c3)cc12)N1CCOCC1 | > 100 | 6.62 to 21.1 |  |  |  | > 85 |  |  | inactive |  |  |
| Cc1ccc(NC(=O)/C=C/c2ccc(O)c3oc(-c4ccc(O)c(O)c4)cc23)cc1 | 51.3 | 6.62 to 21.1 |  |  |  | > 85 | Dose-dependent effect |  |  |  |  |
| C=CCNC(=O)CCc1ccc(O)c2oc(-c3ccc(O)c(O)c3)cc12 | 46.8 | 6.62 to 21.1 |  |  |  | > 85 |  |  |  |  |  |
| O=C(O)CCc1ccc(O)c2oc(-c3ccc(O)c(O)c3)cc12 | 9.76 | 6.62 to 21.1 |  |  |  | > 85 |  |  | inactive |  |  |
| CNC(=O)CCc1ccc(O)c2oc(-c3ccc(O)c(O)c3)cc12 | 11.5 | 6.62 to 21.1 |  |  |  | > 85 |  |  | inactive |  |  |
| O=C(/C=C/c1ccc(O)c2oc(-c3ccc(O)c(O)c3)cc12)Nc1ccc(O)cc1 | 11 | 6.62 to 21.1 |  |  |  |  |  |  | inactive | > 85 |  |
| O=C(/C=C/c1ccc(O)c2oc(-c3ccc(O)c(O)c3)cc12)Nc1ccc(Cl)cc1 | > 100 | 6.62 to 21.1 |  |  |  | > 85 | Dose-dependent effect |  |  |  |  |
| COC(=O)/C=C/c1ccc(O)c2oc(-c3ccc(O)c(O)c3)cc12 | 6.55 | 6.62 to 21.1 |  |  |  | > 85 | Dose-dependent effect |  |  |  |  |
| O=C(/C=C/c1ccc(O)c2oc(-c3ccc(O)c(O)c3)cc12)Nc1ccccc1 | 17.8 | 6.62 to 21.1 |  |  |  | > 85 |  |  | inactive |  |  |
| COc1ccc(NC(=O)/C=C/c2ccc(O)c3oc(-c4ccc(O)c(O)c4)cc23)cc1 | 42.2 | 6.62 to 21.1 |  |  |  | > 85 | Dose-dependent effect |  |  |  |  |
| O=C(/C=C/c1ccc(O)c2oc(-c3ccc(O)c(O)c3)cc12)O[C@H](Cc1ccc(O)c(O)c1)C(=O)O |  |  |  |  |  | > 85 |  | Dose-dependent effect |  |  |  |
| CC(C)OC(=O)/C=C/c1ccc(O)c2oc(-c3ccc(O)c(O)c3)cc12 | 24.2 | 6.62 to 21.1 |  |  |  | > 85 |  |  | inactive |  |  |
| Oc1ncnc2[nH]ncc12 |  |  |  |  |  |  |  |  |  |  | Active |

Second part, led by results:

| IC50 [1] [µM] | IC50 [3] [µM] | Ki [7] [µM] | Ki [8] [µM] | Compound | inhibition (RAW264.7 [2]) | viability at 24 h, up to 10 µM [4] [%] | inhibition (RAW264.7 [5]) | Activity (Mus musculus [6]) | inhibition (RAW264.7 [9]) | viability at 24 h, 10 µM [4] [%] | Activity (Mus musculus [10]) |
| --- | --- | --- | --- | --- | --- | --- | --- | --- | --- | --- | --- |
| 15.6 | 6.62 to 21.1 |  |  | O=C(/C=C/c1ccc(O)c2oc(-c3ccc(O)c(O)c3)cc12)NCc1ccccc1 | Active | > 85 |  |  |  |  |  |
| > 100 | 6.62 to 21.1 |  |  | O=C(CCc1ccc(O)c2oc(-c3ccc(O)c(O)c3)cc12)N1CCOCC1 |  | > 85 |  |  | inactive |  |  |
| 21.2 | 6.62 to 21.1 |  |  | O=C(/C=C/c1ccc(O)c2oc(-c3ccc(O)c(O)c3)cc12)N1CCCCC1 |  | > 85 | Dose-dependent effect |  |  |  |  |
| 18.2 | 6.62 to 21.1 |  |  | C=CCNC(=O)/C=C/c1ccc(O)c2oc(-c3ccc(O)c(O)c3)cc12 |  | > 85 |  |  | inactive |  |  |
| 16.1 |  |  |  | O=C(O)/C=C/c1ccc(O)c2oc(-c3ccc(O)c(O)c3)cc12 [TOURNEFOLIC ACID A] |  | > 85 | Dose-dependent effect |  |  |  |  |
| 13.5 | 6.62 to 21.1 |  |  | CCNC(=O)/C=C/c1ccc(O)c2oc(-c3ccc(O)c(O)c3)cc12 |  |  |  |  | inactive | > 85 |  |
| 45.2 | 6.62 to 21.1 |  |  | CC(C)(C)NC(=O)/C=C/c1ccc(O)c2oc(-c3ccc(O)c(O)c3)cc12 |  | > 85 | Dose-dependent effect |  |  |  |  |
| 13.9 | 6.62 to 21.1 |  |  | CC(C)NC(=O)/C=C/c1ccc(O)c2oc(-c3ccc(O)c(O)c3)cc12 |  | > 85 | Dose-dependent effect |  |  |  |  |
| 38.6 | 6.62 to 21.1 |  |  | O=C(CCc1ccc(O)c2oc(-c3ccc(O)c(O)c3)cc12)Nc1ccc(O)cc1 |  | > 85 |  |  | inactive |  |  |
| 83.8 | 6.62 to 21.1 |  |  | O=C(/C=C/c1ccc(O)c2oc(-c3ccc(O)c(O)c3)cc12)Nc1ccc(F)cc1 |  | > 85 | Dose-dependent effect |  |  |  |  |
| 15.5 | 6.62 to 21.1 |  |  | CCOC(=O)/C=C/c1ccc(O)c2oc(-c3ccc(O)c(O)c3)cc12 |  | > 85 | Dose-dependent effect |  |  |  |  |
| > 100 | 6.62 to 21.1 |  |  | O=C(/C=C/c1ccc(O)c2oc(-c3ccc(O)c(O)c3)cc12)Nc1ccc(Br)cc1 |  | > 85 | Dose-dependent effect |  |  |  |  |
| 19.3 | 6.62 to 21.1 |  |  | CCCOC(=O)/C=C/c1ccc(O)c2oc(-c3ccc(O)c(O)c3)cc12 | Active | > 85 |  |  |  |  |  |
